{"source": "patent US20240307370A1", "about": "“SIGMA RECEPTOR LIGANDS FOR TREATING SARS-COV-2 INFECTION” (University of Florida Research Foundation, Incorporated, priority 2021, published 2024)", "key": {"[1]": {"tested_on": "SARS-CoV-2", "assay_type": "cell-based", "conditions": "Vero E6, MOI 0.2, 72 h"}, "[2]": {"experiment": "Toxicity of ligand alone (LDH release, CC50)", "conditions": "African green monkey"}, "[3]": {"tested_on": "SARS-CoV-2", "assay_type": "cell-based", "conditions": "H23-hACE2, MOI 0.01, 48 hpi, vs mock treated"}, "[4]": {"tested_on": "SARS-CoV-2", "experiment": "K18-hACE2 mouse SARS-CoV-2 infection model", "assay_type": "in vivo, mice"}, "[5]": {"tested_on": "SARS-CoV-2", "assay_type": "cell-based"}, "[6]": {"tested_on": "SARS-CoV-2", "experiment": "microbe, parasite or virus in culture", "conditions": "Severe acute respiratory syndrome coronavirus 2, Vero C1008, 72 h"}, "[7]": {"tested_on": "SARS-CoV-2", "experiment": "Plaque reduction assay in Vero E6 monolayers", "assay_type": "cell-based", "conditions": "Vero E6, plaques counted at 72 h; for EC50: Severe acute respiratory syndrome coronavirus 2, Vero C1008, 72 h"}, "[8]": {"tested_on": "H23 cells", "experiment": "Phospholipidosis assay", "conditions": "48 h treatment, 100 μg/ml"}, "[9]": {"tested_on": "SARS-CoV-2", "conditions": "Vero E6, MOI 0.2, 72 h"}, "[10]": {"tested_on": "SARS-CoV-2", "conditions": "cited from earlier work"}, "[11]": {"tested_on": "SARS-CoV-2", "conditions": "cited from earlier work", "remark": "listed apart in the source"}, "[12]": {"tested_on": "sigma-1 over sigma-2", "conditions": "cited from earlier work"}, "[13]": {"tested_on": "Vero E6 cells", "experiment": "Toxicity of ligand alone (LDH release, CC50)", "conditions": "drug alone, Vero E6, 72 h, LDH release"}, "[14]": {"tested_on": "SARS-CoV-2", "conditions": "previously published study; cited from earlier work"}, "[15]": {"conditions": "45 mg/kg daily intraperitoneal from 24 hours after infection"}, "[16]": {"conditions": "read-out: Cytotoxicity EC50 (inhibition of SARS-CoV-2-induced cytotoxicity)"}, "[17]": {"conditions": "read-out: EC50 for inhibition of SARS-CoV-2 induced cytotoxicity"}}, "note": "Read-outs that look alike come from different tables or passages of the source."}
{"smiles": "CC(CCCn1c(=O)sc2cc(F)ccc21)N1CCN(C2CCCCC2)CC1", "note": "(centres unmarked) [AZ66]", "values": [{"measurement": "reduction of cytopathic effects (CPE) by microscopy", "setting": "[1]", "value": "greatly reduce cytopathic effects"}, {"measurement": "CC50 at 72 h", "setting": "[2]", "value": 128, "unit": "µg/mL"}, {"measurement": "decrease of SARS-CoV-2 concentration (TCID50)", "setting": "[3]; 50 μg/ml", "value": "~3", "unit": "log"}, {"measurement": "weight loss associated with COVID-19", "setting": "[4]; [15]", "value": "delayed weight loss"}, {"measurement": "viral replication reduced by (qPCR)", "setting": "[5]", "value": 99.9, "unit": "%"}, {"measurement": "viral replication reduction (qPCR)", "setting": "[5]", "value": 3, "unit": "log"}, {"measurement": "EC50", "setting": "[6]; [16]", "value": 45.1, "unit": "µg/mL"}, {"measurement": "EC50", "setting": "[6]; [17]", "value": 86.4, "unit": "µM"}, {"measurement": "EC50", "setting": "[7]; read-out: EC50 by plaque reduction assay", "value": 15.9, "unit": "µM"}, {"measurement": "EC50", "setting": "[7]; read-out: Plaque reduction EC50", "value": 6.46, "unit": "µg/mL"}, {"measurement": "Plaque reduction EC50", "setting": "[7]", "value": 6.47, "unit": "µg/mL"}]}
{"smiles": "O=c1sc2cc(CCCF)ccc2n1CCN1CCCCCC1", "note": "[CM304]", "values": [{"measurement": "phospholipidosis level", "setting": "[8]", "value": "highest mean levels of phospholipidosis"}, {"measurement": "inhibition of SARS-CoV-2-induced cytotoxicity", "setting": "[9]", "value": "insignificant viral inhibition"}, {"measurement": "reduction of cytopathic effects (CPE) by microscopy", "setting": "[1]", "value": "unable to visibly reduce CPE"}, {"measurement": "more virus detected (RNA levels) compared to the 48 hours DMSO control", "setting": "[5]", "value": 61.2, "unit": "%"}]}
{"smiles": "COc1cc2c(cc1OC)CN(CCCCn1c(=O)n(C)c3ccccc31)CC2", "note": "[CM398, 1-(4-(6,7-Dimethoxy-3,4-dihydroisoquinolin-2(1H)-yl)butyl)-3-methyl-1H-benzo[d]imidazol-2(3H)-one]", "values": [{"measurement": "reduction of cytopathic effects (CPE) by microscopy", "setting": "[1]", "value": "greatly reduce cytopathic effects"}, {"measurement": "CC50 at 72 h", "setting": "[2]", "value": 111, "unit": "µg/mL"}, {"measurement": "decrease of SARS-CoV-2 concentration (TCID50)", "setting": "[3]; 100 μg/ml", "value": "~1", "unit": "log"}, {"measurement": "weight loss associated with COVID-19", "setting": "[4]; [15]", "value": "delayed weight loss"}, {"measurement": "median survival", "setting": "[4]; 45 mg/kg daily intraperitoneal from 24 hours after infection, saline 5.5 days, not statistically significant", "value": 6.5, "unit": "days"}, {"measurement": "survival and recovery", "setting": "[4]; 45 mg/kg daily intraperitoneal, group of 5 mice", "value": "One mouse in the CM398 group survived and regained all weight lost"}, {"measurement": "viral replication reduced by (qPCR)", "setting": "[5]", "value": 97.5, "unit": "%"}, {"measurement": "EC50", "setting": "[6]; [16]", "value": 51.3, "unit": "µg/mL"}, {"measurement": "EC50", "setting": "[6]; [17]", "value": 130, "unit": "µM"}]}
{"smiles": "COc1cccc2c1CCCC2CCCN1CCN(C2CCCCC2)CC1", "note": "(centres unmarked) [PB28]", "values": [{"measurement": "in vivo efficacy", "setting": "[10]", "value": "ineffective"}, {"measurement": "in vivo toxicity", "setting": "[10]", "value": "toxic"}, {"measurement": "in vitro SARS-CoV-2 inhibitory effects", "setting": "[11]", "value": "sub-nanomolar"}]}
{"smiles": "COc1ccc(CCN2CCN(CCCc3ccccc3)CC2)cc1OC", "note": "[SA4503, cutamesine, reference compound]", "values": [{"measurement": "preference for sigma-1 over sigma-2", "setting": "[12]", "value": "> 15", "unit": "fold"}, {"measurement": "Cytotoxicity EC50 (inhibition of SARS-CoV-2-induced cytotoxicity)", "setting": "[9]; LDH release", "value": 110.5, "unit": "µg/mL"}, {"measurement": "EC50", "setting": "[9]; read-out: EC50 for inhibition of SARS-CoV-2 induced cytotoxicity, LDH release", "value": 300, "unit": "µM"}, {"measurement": "reduction of cytopathic effects (CPE) by microscopy", "setting": "[1]", "value": "unable to visibly reduce CPE"}, {"measurement": "Cytotoxicity CC50", "setting": "[13]", "value": 198.7, "unit": "µg/mL"}, {"measurement": "viral replication reduced by (qPCR)", "setting": "[5]", "value": 56.2, "unit": "%"}]}
{"smiles": "CN(C)CCOC(c1ccccc1)c1ccccc1", "note": "[diphenhydramine, reference compound]", "values": [{"measurement": "decrease of SARS-CoV-2 concentration (TCID50)", "setting": "[3]; 40 μg/ml", "value": "~2", "unit": "log"}, {"measurement": "reduction of N-protein RNA copies (qPCR)", "setting": "[5]", "value": 32.2, "unit": "%"}, {"measurement": "EC50", "setting": "[6]; [16]", "value": 122, "unit": "µg/mL"}, {"measurement": "EC50", "setting": "[6]; [17]", "value": 418, "unit": "µM"}]}
{"smiles": "CCC(CC)COC(=O)[C@H](C)N[P@](=O)(OC[C@H]1O[C@@](C#N)(c2ccc3c(N)ncnn23)[C@H](O)[C@@H]1O)Oc1ccccc1", "note": "[remdesivir]", "values": [{"measurement": "reported SI (CC50/EC50)", "setting": "[14]", "value": "> 4.96"}]}
